In PubChem BioAssay AID220 (DTP/NCI, 2004):
Values joined by “and” are separate entries in the source; they are usually repeats but may differ in a detail not shown here. Identical values can stand only once. Records with an inconclusive call do not appear.

Tested on: CD8F1 mice, subcutaneous mammary adenocarcinoma, T/C%
Assay: NCI In Vivo Anticancer Drug Screen. Data for tumor model Mammary Adenocarcinoma CD8F1 (subcutaneous) in CD8F1
Conditions: higher = larger tumour
How it was run: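 Ratio of treated to vehicle-control outcome, based on either survival or tumor size, in mice bearing transplantable tumors given the test compound.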

[1] = endpoint: median tumor weight (est.), dose: 25.0 mg/kg/injection, schedule: Q07DX005 (ip), vehicle: saline with Tween-80
[2] = endpoint: median tumor weight (est.), dose: 200.0 mg/kg/injection, schedule: Q07DX005 (ip), vehicle: saline with Tween-80
[3] = endpoint: median tumor weight change, dose: 250.0 mg/kg/injection, schedule: Q01DX001 (ip), vehicle: saline with Tween-80
[4] = endpoint: median tumor weight change, dose: 500.0 mg/kg/injection, schedule: Q01DX001 (ip), vehicle: saline with Tween-80
[5] = endpoint: median tumor weight (est.), dose: 12.5 mg/kg/injection, schedule: Q07DX005 (ip), vehicle: saline with Tween-80
[6] = endpoint: median tumor weight (est.), dose: 50.0 mg/kg/injection, schedule: Q07DX005 (ip), vehicle: saline with Tween-80
[7] = endpoint: median tumor weight (est.), dose: 12.5 mg/kg/injection, schedule: Q07DX005 (ip), vehicle: saline
[8] = endpoint: median tumor weight (est.), dose: 25.0 mg/kg/injection, schedule: Q07DX005 (ip), vehicle: saline
[9] = endpoint: median tumor weight (est.), dose: 50.0 mg/kg/injection, schedule: Q07DX005 (ip), vehicle: saline
[10] = endpoint: median tumor weight (est.), dose: 50.0 mg/kg/injection, schedule: Q07DX005 (ip), vehicle: suspension in saline
[11] = endpoint: median tumor weight (est.), dose: 100.0 mg/kg/injection, schedule: Q07DX005 (ip), vehicle: saline
[12] = endpoint: median tumor weight (est.), dose: 100.0 mg/kg/injection, schedule: Q07DX005 (ip), vehicle: suspension in saline
[13] = endpoint: median tumor weight (est.), dose: 200.0 mg/kg/injection, schedule: Q07DX005 (ip), vehicle: suspension in saline

## O=[Te]=O
endpoint: median tumor weight change, dose: 6.25 mg/kg/injection, schedule: Q01DX001 (ip), vehicle: suspension in saline
  T/C: 73 % of control
endpoint: median tumor weight change, dose: 12.5 mg/kg/injection, schedule: Q01DX001 (ip), vehicle: suspension in saline
  T/C: 83 % of control
endpoint: median tumor weight change, dose: 25.0 mg/kg/injection, schedule: Q01DX001 (ip), vehicle: suspension in saline
  T/C: 61 % of control
endpoint: median tumor weight change, dose: 50.0 mg/kg/injection, schedule: Q01DX001 (ip), vehicle: suspension in saline
  T/C: 94 % of control
endpoint: median tumor weight change, dose: 100.0 mg/kg/injection, schedule: Q01DX001 (ip), vehicle: suspension in saline
  T/C: 106 % of control

## O=S(=O)(c1ccccc1)N1CN2CCN(C2)C1
[1]
  T/C: 55 % of control and 72 % of control
[2]
  T/C: 66 % of control and 79 % of control

## COc1ccc2c(c1[N+](=O)[O-])CC[C@@H]1[C@@H]2CC[C@]2(C)C(=O)CC[C@@H]12
endpoint: median tumor weight change, dose: 62.5 mg/kg/injection, schedule: Q01DX001 (ip), vehicle: saline with Tween-80
  T/C: 90 % of control
[3]
  T/C: 84 % of control
[4]
  T/C: 100 % of control

## CC(=O)OCC1OC(OC(C)=O)C(NC(=O)N(CCCl)N=O)C(OC(C)=O)C1OC(C)=O (stereo not given)
endpoint: median tumor weight (est.), dose: 1.5 mg/kg/injection, schedule: Q07DX005 (ip), vehicle: Klucel (hydroxypropylcellulose) (HPC)
  T/C: 61 % of control
endpoint: median tumor weight (est.), dose: 3.0 mg/kg/injection, schedule: Q07DX005 (ip), vehicle: Klucel (hydroxypropylcellulose) (HPC)
  T/C: 41 % of control and 63 % of control and 66 % of control

## O=C(NC/C(Cl)=C/Cl)Oc1cccc2ccccc12
endpoint: mean tumor weight, dose: 0.78 mg/kg/injection, schedule: Q07DX004 (ip), vehicle: saline
  T/C: 78 % of control
endpoint: mean tumor weight, dose: 1.56 mg/kg/injection, schedule: Q07DX004 (ip), vehicle: saline
  T/C: 91 % of control
endpoint: mean tumor weight, dose: 3.12 mg/kg/injection, schedule: Q07DX004 (ip), vehicle: saline
  T/C: 112 % of control
endpoint: mean tumor weight, dose: 6.25 mg/kg/injection, schedule: Q07DX004 (ip), vehicle: saline
  T/C: 72 % of control
endpoint: mean tumor weight, dose: 12.5 mg/kg/injection, schedule: Q07DX004 (ip), vehicle: saline
  T/C: 58 % of control

## [CH3][Sn]([CH3])([Cl])[S]CCN
endpoint: median tumor weight change, dose: 12.5 mg/kg/injection, schedule: Q01DX001 (ip), vehicle: saline
  T/C: 108 % of control

## OCCOCC(F)(F)F
[5]
  T/C: 57 % of control
[1]
  T/C: 102 % of control and 106 % of control
[6]
  T/C: 97 % of control and 104 % of control
[2]
  T/C: 67 % of control
endpoint: median tumor weight (est.), dose: 800.0 mg/kg/injection, schedule: Q07DX005 (ip), vehicle: saline with Tween-80
  T/C: 70 % of control

## CC(=O)N(C)c1ccc(Nc2cc(C)[nH]c3ccc4ncnc4c23)cc1
endpoint: median tumor weight change, dose: 125.0 mg/kg/injection, schedule: Q01DX001 (ip), vehicle: saline
  T/C: 34 % of control and 46 % of control

## COc1ccc(/C=C/C(=O)c2cc(C(=O)O)c(OC)cc2OC)cc1OC
[7]
  T/C: 326 % of control
[8]
  T/C: 117 % of control
[9]
  T/C: 192 % of control
[10]
  T/C: 85 % of control
[11]
  T/C: 84 % of control
[12]
  T/C: 107 % of control
endpoint: median tumor weight (est.), dose: 200.0 mg/kg/injection, schedule: Q07DX005 (ip), vehicle: saline
  T/C: 42 % of control
[13]
  T/C: 53 % of control

## O=C(O)CSc1nc(-c2ccccc2)c(-c2ccccc2)n1-c1ccccn1
endpoint: median tumor weight (est.), dose: 12.5 mg/kg/injection, schedule: Q07DX005 (ip), vehicle: water
  T/C: 63 % of control and 72 % of control
endpoint: median tumor weight (est.), dose: 25.0 mg/kg/injection, schedule: Q07DX005 (ip), vehicle: water
  T/C: 217 % of control and 78 % of control
endpoint: median tumor weight (est.), dose: 200.0 mg/kg/injection, schedule: Q07DX005 (ip), vehicle: water
  T/C: 64 % of control

## CCc1nc(N)nc(N)c1-c1ccc(Cl)c(Cl)c1
endpoint: mean tumor weight (est.), dose: 40.0 mg/kg/injection, schedule: Q07DX003 (ip), vehicle: saline with Tween-80
  T/C: 107 % of control
endpoint: mean tumor weight (est.), dose: 50.0 mg/kg/injection, schedule: Q07DX003 (ip), vehicle: saline with Tween-80
  T/C: 100 % of control
endpoint: mean tumor weight (est.), dose: 60.0 mg/kg/injection, schedule: Q07DX003 (ip), vehicle: saline with Tween-80
  T/C: 93 % of control
endpoint: mean tumor weight (est.), dose: 60.0 mg/kg/injection, schedule: Q07DX004 (ip), vehicle: saline with Tween-80
  T/C: 35 % of control
endpoint: mean tumor weight (est.), dose: 80.0 mg/kg/injection, schedule: Q07DX004 (ip), vehicle: saline with Tween-80
  T/C: 50 % of control

## O=C(N/N=C\c1cc(Br)cc(Br)c1O)N/N=C/c1cc(Br)cc(Br)c1O
[6]
  T/C: 60 % of control
[2]
  T/C: 100 % of control
endpoint: median tumor weight (est.), dose: 400.0 mg/kg/injection, schedule: Q07DX005 (ip), vehicle: saline with Tween-80
  T/C: 391 % of control

## CCCCCCCCCCCCCCCCP(=O)(OCCOCCCCCC)OCCOCCCCCC
endpoint: median tumor weight (est.), dose: 3.12 mg/kg/injection, schedule: Q07DX005 (ip), vehicle: saline
  T/C: 118 % of control
endpoint: median tumor weight (est.), dose: 6.25 mg/kg/injection, schedule: Q07DX005 (ip), vehicle: saline
  T/C: 156 % of control
[7]
  T/C: 85 % of control
[8]
  T/C: 72 % of control
[9]
  T/C: 94 % of control
[11]
  T/C: 55 % of control

## O=c1[nH]c(=O)n([C@H]2CCCO2)cc1F
endpoint: median tumor weight (est.), dose: 12.5 mg/kg/injection, schedule: Q07DX005 (ip), vehicle: Klucel (hydroxypropylcellulose) (HPC)
  T/C: 100 % of control
endpoint: median tumor weight (est.), dose: 20.0 mg/kg/injection, schedule: Q07DX005 (ip), vehicle: Klucel (hydroxypropylcellulose) (HPC)
  T/C: 82 % of control
endpoint: median tumor weight (est.), dose: 40.0 mg/kg/injection, schedule: Q07DX005 (ip), vehicle: Klucel (hydroxypropylcellulose) (HPC)
  T/C: 97 % of control
endpoint: median tumor weight (est.), dose: 50.0 mg/kg/injection, schedule: Q07DX005 (ip), vehicle: Klucel (hydroxypropylcellulose) (HPC)
  T/C: 102 % of control
endpoint: median tumor weight (est.), dose: 100.0 mg/kg/injection, schedule: Q07DX005 (ip), vehicle: Klucel (hydroxypropylcellulose) (HPC)
  T/C: 84 % of control
endpoint: median tumor weight (est.), dose: 160.0 mg/kg/injection, schedule: Q07DX005 (ip), vehicle: Klucel (hydroxypropylcellulose) (HPC)
  T/C: 91 % of control
endpoint: median tumor weight (est.), dose: 200.0 mg/kg/injection, schedule: Q07DX005 (ip), vehicle: Klucel (hydroxypropylcellulose) (HPC)
  T/C: 95 % of control
endpoint: median tumor weight (est.), dose: 320.0 mg/kg/injection, schedule: Q07DX005 (ip), vehicle: Klucel (hydroxypropylcellulose) (HPC)
  T/C: 10 % of control
endpoint: median tumor weight (est.), dose: 400.0 mg/kg/injection, schedule: Q07DX005 (ip), vehicle: Klucel (hydroxypropylcellulose) (HPC)
  T/C: 4 % of control

## C[C@@H]1C[C@@H]([C@H](O)CC2CC(=O)NC(=O)C2)C(=O)[C@@H](C)C1
endpoint: median tumor weight change, dose: 62.5 mg/kg/injection, schedule: Q01DX001 (ip), vehicle: suspension in saline
  T/C: 57 % of control
endpoint: median tumor weight change, dose: 125.0 mg/kg/injection, schedule: Q01DX001 (ip), vehicle: suspension in saline
  T/C: 72 % of control
endpoint: median tumor weight change, dose: 250.0 mg/kg/injection, schedule: Q01DX001 (ip), vehicle: suspension in saline
  T/C: 57 % of control

## COC1C(C)OC(OC2CC(C)(O)Cc3cc4c(c(O)c32)C(=O)c2c(O)cc3c(c2C4=O)OC2OC3(C)C(O)C(N(C)C)C2O)C(OC)C1(C)OC (stereo not given)
endpoint: median tumor weight (est.), dose: 2.5 mg/kg/injection, schedule: Q07DX005 (ip), vehicle: other
  T/C: 161 % of control
endpoint: median tumor weight (est.), dose: 5.0 mg/kg/injection, schedule: Q07DX005 (ip), vehicle: other
  T/C: 94 % of control
endpoint: median tumor weight (est.), dose: 10.0 mg/kg/injection, schedule: Q07DX005 (ip), vehicle: other
  T/C: 57 % of control

## CC(=O)OCC1OC(n2ccc(N)nc2=O)C(OC(C)=O)C1OC(C)=O (stereo not given)
endpoint: median tumor weight (est.), dose: 25.0 mg/kg/injection, schedule: Q07DX005 (ip), vehicle: suspension in saline
  T/C: 159 % of control
[10]
  T/C: 70 % of control
[12]
  T/C: 87 % of control
[13]
  T/C: 88 % of control
endpoint: median tumor weight (est.), dose: 400.0 mg/kg/injection, schedule: Q07DX005 (ip), vehicle: suspension in saline
  T/C: 96 % of control
endpoint: median tumor weight (est.), dose: 800.0 mg/kg/injection, schedule: Q07DX005 (ip), vehicle: suspension in saline
  T/C: 6 % of control

## O=Cc1ccc(C(Cl)(Cl)Cl)cc1
[5]
  T/C: 94 % of control
[1]
  T/C: 55 % of control
[6]
  T/C: 97 % of control
endpoint: median tumor weight (est.), dose: 100.0 mg/kg/injection, schedule: Q07DX005 (ip), vehicle: saline with Tween-80
  T/C: 68 % of control
[2]
  T/C: 81 % of control

## CCCCCCC(=O)CC(SCC)c1ccccc1Cl (stereo not given)
endpoint: median tumor weight change, dose: 125.0 mg/kg/injection, schedule: Q01DX001 (ip), vehicle: saline with Tween-80
  T/C: 108 % of control
[3]
  T/C: 72 % of control
[4]
  T/C: 77 % of control
endpoint: median tumor weight change, dose: 1000.0 mg/kg/injection, schedule: Q01DX001 (ip), vehicle: saline with Tween-80
  T/C: 72 % of control
endpoint: median tumor weight change, dose: 2000.0 mg/kg/injection, schedule: Q01DX001 (ip), vehicle: saline with Tween-80
  T/C: 86 % of control
